This is an account of results in PubChem BioAssay (NCI).

What all share (assay): growth of human tumour cells (NCI), 48 h
Assay [1] concerns SK-MEL-2 melanoma.
Assay [2] deals with OVCAR-3 ovarian.
The test system of assay [3] is SR leukemia.
For assay [4], the system named is LOX IMVI melanoma.
The subject of assay [5] is RXF 393 renal.
The test system of assay [6] is MCF7 breast.
Assay [7] has as its system ACHN renal.
Assay [8] concerns HS 578T breast.
For assay [9], the system named is TK-10 renal.
In assay [10] the test system is CCRF-CEM leukemia.
Assay [11] relates to MDA-N.
Assay [12] deals with MDA-MB-231 breast.
Assay [13] deals with A498 renal.
In assay [14] the test system is DU-145 prostate.
Assay [15] has as its system NCI-H522 lung.
Assay [16] has as its system HCT-15 colon.
Assay [17] relates to 786-0 renal.
The subject of assay [18] is T-47D breast.
Assay [19] has as its system HT29 colon.
For assay [20], the system named is UACC-257 melanoma.

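Grown in 96-well plates, cells were treated for 48 hours with each compound at five concentrations. Insufficient inhibition: endpoint recorded as highest concentration tested. TGI is the concentration that stops growth completely.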 Bounds are passed on as bounds.

For `CC(C)=CCC/C(C)=C/CC/C(C)=C/CC(CO)N(C)CC/C=C(\C)CCC=C(C)C` (stereo not given), the TGI in assay [1] came to 28.6 µM; in assay [2] it was 27.8 µM; in assay [3] it was 4.8 µM; in assay [4] it was 7.56 µM; in assay [5], 12.8 µM; in [6] it was 4.8 µM. The TGI in assay [7] was 23.8 µM; in assay [8], 16.7 µM; in assay [9], 22.7 µM; in [10], over 25.2 µM; in assay [11], 12.4 µM; in assay [12], 22.6 µM. In addition, the TGI came out at 28.4 µM in assay [13]; 23.7 µM in assay [14]; 3.89 µM in [15]; 14.8 µM in [16]; 4.89 µM in [17]; 10.7 µM in assay [18]. Further, the TGI turned out to be 14.4 µM in [19] and 19.3 µM in [20].

`[N-]=[N+]=CC(=O)OC1Cc2ccccc2C1`: the TGI in [1], in [2], in assay [3], in [4], in [5] and in [6] was over 100 µM in each case. In addition, the TGI in assay [7] is 81.9 µM; in [8] it was over 100 µM; in assay [9] it was over 100 µM; in assay [10], over 31.6 µM; in assay [11], over 100 µM; in assay [12] it was over 100 µM. Also, the TGI in [13] was over 100 µM; in [14] it was over 84.2 µM; in assay [15] it was over 100 µM; in assay [16] it was over 100 µM; in assay [17], over 100 µM; in [18], over 100 µM. Further, the TGI in assay [19] and in assay [20] was over 100 µM in each case.

On to `CC1C=CN(N(C)C)C2=C1C(=O)c1cnccc1C2=O` (stereo not given), for which the TGI stood at 4.02 µM in assay [1]; 2.37 µM in [2]; 0.196 µM in [3]; 0.307 µM in assay [4]; 1.46 µM in assay [5]; 0.986 µM in assay [6]. The TGI in [7] came out at 1.06 µM; in [8], 3.82 µM; in assay [9] it was 1.44 µM; in [10], 5.01 µM; in assay [11] it was 0.278 µM; in assay [12], 2.12 µM. Further, the TGI came to 2.66 µM in assay [13]; 1.39 µM in assay [14]; 0.55 µM in [15]; 1.23 µM in assay [16]; 0.538 µM in [17]; 4.33 µM in assay [18]. Further, the TGI in assay [19] is 2.27 µM; in assay [20] it was 0.75 µM.

Regarding `COc1cccc2nc3c(C(=O)NCCN(C)C)cccc3cc12`, the TGI in assay [1] worked out at 12.7 µM; in assay [2], 12.3 µM; in assay [3] it was 3.15 µM; in [4] it was 2.49 µM; in assay [5], 9.74 µM; in assay [6], 8 µM. The TGI was 2.85 µM in [7]; 7.5 µM in [8]; 10.8 µM in assay [9]; 61.3 µM in assay [10]; 8.42 µM in assay [11]; 9.27 µM in [12]. Moreover, the TGI in assay [13] was 2.98 µM; in assay [14], 14.4 µM; in assay [15], 3.42 µM; in assay [16] it was 11.2 µM; in assay [17], 12.5 µM; in [18] it was 16.7 µM. For the same compound, the results for the TGI in [19] and in assay [20] were 7.61 µM and 5.01 µM, respectively.

Take `COC(=O)/C=C\C(C#N)(C#N)N=Cc1cc(Br)cs1`: the TGI in [1] was 25.5 µM; in assay [2] it was 17.4 µM; in assay [3], over 100 µM; in assay [4] it was 4.51 µM; in assay [5], 5.38 µM; in assay [6] it was 4.49 µM. Besides, the TGI in assay [7] was 4.93 µM; in assay [8], 45.1 µM; in assay [9], 8.45 µM; in assay [10], 2.38 µM; in assay [11] it was 6.62 µM; in assay [12], 23.3 µM. Besides, the TGI in [13] is 32.9 µM; in assay [14], 19.1 µM; in [15], 2.9 µM; in assay [16], 6.37 µM; in assay [17], 3.78 µM; in assay [18], 5.07 µM. Moreover, the values for the TGI in assay [19] and in assay [20] were 4.86 µM and 7.74 µM, respectively.

For the compound `NCC(=O)Nc1ccc(S(=O)(=O)O)c2cc(S(=O)(=O)O)cc(S(=O)(=O)O)c12`, the TGI in assay [1], in [2], in [3], in assay [4], in assay [5] and in assay [6] was over 100 µM throughout. Besides, the TGI in assay [7], in assay [8], in assay [9], in assay [10], in assay [11] and in assay [12] was over 100 µM in each case. Also, the TGI in assay [13], in assay [14], in assay [15], in [16], in [17] and in [18] was over 100 µM each time. For the same compound, the TGI in assay [19] and in [20] was over 100 µM in each case.

With `CC(C)C(C/C=C1\CC(CO)(COC(=O)C(C)(C)C)OC1=O)C(C)C` (stereo not given), the TGI was 39.5 µM in assay [1]; 26.4 µM in [2]; over 100 µM in assay [3]; 17.7 µM in assay [4]; 33.5 µM in [5]; 37.6 µM in assay [6]. The TGI in assay [7] amounted to 24.4 µM; in assay [8], 11.8 µM; in assay [9], 21.1 µM; in assay [10], 42.7 µM; in [11], 17.6 µM; in assay [12], 21.7 µM. Further, the TGI is 28.7 µM in assay [13]; 19.6 µM in assay [14]; 29 µM in [15]; 29.8 µM in [16]; 14.7 µM in [17]; 34.9 µM in assay [18]. Moreover, the TGI is 49.6 µM in [19] and 32.6 µM in assay [20].
